“Also recorded” adds a separate entry of the source. Where no end group is shown, it is not given here. [ ]: non-standard residue; d: D form. The star is where a group is joined. Biotin = O=C1N[C@H]2[C@H](CS[C@H]2CCCCC(=O)*)N1; Bpa = N[C@@H](Cc1ccc(C(=O)c2ccccc2)cc1)C(=O)O; ol = C-terminal alcohol (reduced C-terminus); Tyr(3-I) = N[C@@H](Cc1ccc(O)c(I)c1)C(=O)O; Desaminotyrosyl = O=C(CCc1ccc(O)cc1)*; NMeY = CN[C@@H](Cc1ccc(O)cc1)C(=O)O; Hexanoyl = CCCCCC(=O)*; NHCH2CH2OMe = COCCN*; GABA = NCCCC(=O)O; βAla = NCCC(=O)O
Assays:
[1] = test system: osteoblastic MC3T3 E1 cells; assay: Proliferation assay, osteoblastic MC3T3 E1 cells; type: cell-based; settings: for analog concentration evoking the peak inhibitory response / anti-proliferative activity (in words): absence of exogenous OGP, FIG. 8; for Relative in vitro potency (95% confidence limit) MC3T3 E1 cells: analog concentration 10^−13M, mean cell number relative to positive control OGP(1-14) = 1.00
From the text: (§1) Some of the analogs were subjected to a dose response analysis.

[2] = test system: fibroblastic NIH 3T3 cells; assay: Proliferation assay, fibroblastic NIH 3T3 cells; type: cell-based; settings: for Relative in vitro potency (95% confidence limit) NIH 3T3 cells: analog concentration 10^−11M, mean cell number relative to positive control OGP(1-14) = 1.00
From the text: as §1

[3] = test system: osteoblastic MC3T3 E1 cells; assay: Inhibition of stimulatory effect of optimal OGP dose on MC3T3 E1 cells (FIG. 7); type: cell-based; settings: cultures treated with 10^−13M synthetic OGP(1-14) plus antagonist
Method: All other cultures were treated with 10^−13M synthetic OGP(1-14) (SEQ ID NO: 1) and the indicated dose of antagonist. Data are mean±SE obtained in three culture wells per condition.
(§2) The effect of OGP analogs on osteoblastic MC3T3 E1 and fibroblastic NIH 3T3 cell proliferation was measured as before [Bab, I., et al (1992) EMBO J. 11:1867]. Some of the analogs were subjected to a dose response analysis. Otherwise the analog concentration was 10^−13M and 10^−11M in the MC3T3 E1 and NIH3T3 cell cultures, respectively. The mean cell number in triplicate culture wells was expressed as percent of a positive control triplicate dosed with OGP(1-14) (SEQ ID NO: 1). Experiments testing one dose per cell line were repeated at least four times and the activity of individual analogs expressed as the mean of results and 95% confidence limit obtained in these repetitive experiments.

[4] = test system: osteoblastic MC3T3 E1 and fibroblastic NIH 3T3 cells; assay: Proliferation assay, text statements not split by cell line; type: cell-based; settings: in vitro, compared to OGP(1-14) or parent analog
Method: as §2

[5] = test system: ovariectomized rats; assay: Number of bone marrow derived osteoblastic colonies from ovariectomized rats; type: in vivo, Sabra rats; settings: OVX rats, 100 ng/day/rat subcutaneous daily for eight weeks, FIG. 6
Method: Twenty five female Sabra rats weighing 250 g each were subjected to bilateral ovariectomy (OVX). Additional five control animals underwent sham OVX. All animals were left untreated for 30 days. Then the OVX animals were divided into five groups, each consisting of five rats. All animals were injected subcutaneously in the nape daily for eight weeks with following solutions: One group was given to OGP(10-14) (SEQ ID NO: 61), 100 ng/day/rat. A second group was given desamino[Tyr^10]OGP(10-14) (SEQ ID NO: 4), 100 ng/day/rat. A third group was given c(Tyr-Gly-Phe-Gly-Gly) (SEQ ID NO: 35), 100 ng/day/rat. The fourth group was given retro OGP ([…] (SEQ ID NO: 60), 300 ng/day/rat. All compounds were dissolved in PBS. An additional control OVX group was given the PBS solvent only. After termination of treatment the animals were killed and the femoral and tibial bone marrow from both posterior limbs was pooled and transferred to alpha minimal essential medium (αMEM). Bone marrow cell cultures were set in 35 mm dishes, 10 dishes per animal, as described previously [Rickard, D. J., et al (1994) Biology, 161:218]. The total number of fibroblastic colonies (CFU-f) formed was determined after three weeks in culture. Immediately after, the CFU-f cultures were stained for alkaline phosphates and co-stained for mineral with alizarin-red-S. The alizarin-red-S positive colonies were considered osteoblastic. Their frequency was expressed as their percentage of the total numbers of colonies. The value for each animal was calculated as the mean percentage obtained in the 10 dishes.

[6] = listed as [N(CH3)-Tyr^10]OGP(9-14)
[7] = listed as c[Tyr-Gly-Phe-Gly-Gly]

Substance	Relative in vitro potency (95% confidence limit) MC3T3 E1 cells [1]	Relative in vitro potency (95% confidence limit) NIH 3T3 cells [2]	OGP-like proliferative activity (in words) [4]	also measured
Leu-N(CH3)-CH(CH2C6H4(OH))-C(O)-Gly-Phe-Gly-Gly (L[NMeY]GFGG) [N(Me)-[Tyr^10]OGP(9-14)]	−0.34	−0.32		analog concentration evoking the peak inhibitory response [1]: 10^−13 M; anti-proliferative activity (in words) [1]: inhibit osteoblastic MC3T3 E1 cell proliferation dose dependently at low concentrations with reversal of this inhibition at high doses; anti-proliferative activity (in words) [1, 6]: anti-proliferative activity; inhibition of stimulation by optimal OGP dose / OGP antagonism (in words) [3]: highly potent OGP antagonist; inhibition of stimulation by optimal OGP dose / OGP antagonism (in words) [3, 6]: inhibitory effect at low doses
Nα-Ac—OGP(12-14) (Ac-Phe-Gly-Gly)	0.06	0.07	essentially nil	
Nα-biotinylcaproyl[Bpa^12]OGP(10-14) ({Biotin-Hexanoyl}-YG[Bpa]GG) [Nα-biotinylcaproyl-[BPA^12]OGP(10-14)]			remained unaltered	
Tyr(m-I)-Gly-NH-CH(CH2C6H4(C(O)C6H5))C(O)-Gly-Gly ([Tyr(3-I)]G[Bpa]GG) [[Tyr^10(m-I),BPA^12]OGP(10-14)]	0.80	0.85	remained unaltered	
Tyr-Gly-NH-CH(CH2C6H4(C(O)-C6H5))C(O)-Gly-Gly (YG[Bpa]GG) [[Bpa^12]OGP(10-14)]	0.74	0.86	only a minor effect on the OGP-like proliferative activity	
Tyr-Gly-Phe-Gly-Asp (YGFGD) [[Asp^14]OGP(10-14)]	−0.39	−0.28		analog concentration evoking the peak inhibitory response [1]: 10^−13 M; anti-proliferative activity (in words) [1]: anti-proliferative activity; also recorded: inhibit osteoblastic MC3T3 E1 cell proliferation dose dependently at low concentrations with reversal of this inhibition at high doses; inhibition of stimulation by optimal OGP dose / OGP antagonism (in words) [3]: inhibitory effect at low doses
[Ala^11]OGP(11-14) (AFGG)	0.17	0.07	essentially nil	
[Gly^13ψ(CH2)2Gly^14]OGP(11-14) (GFGG; also: reduced ethylene bond ψ(CH2)2 between Gly13 and Gly14)	0.15	0.08	essentially nil	
[Pro^11]OGP(10-14) (YPFGG)	0.89	0.96		OGP-like proliferative activity (in words) ([4]; listed as Table 5, analog 2): remained essentially unaltered
c(Gly-Gly-Phe-Gly-Tyr) (GGFGY; cyclic)	0.95	1.02	preserved or slightly improved its in vitro activity	
c(Tyr-Gly-Phe-Gly-Gly) (YGFGG; cyclic)	0.79	1.12	preserved or slightly improved its in vitro activity	OGP-like proliferative activity (in words) [4, 7]: preserves the OGP-like in vitro activity; reversal of reduction in osteoprogenitor cells / osteoblastic colonies (in words) [5]: improved over OGP(10-14); reversal of reduction in osteoprogenitor cells / osteoblastic colonies (in words) [5, 7]: improved in vivo activity
c(β-Ala-Tyr-Gly-Phe-Gly-Asp)-OH ([βAla]YGFGD-OH; lactam (positions not given here); also: cyclic, closure site not given here) [c(β-Ma-Tyr-Gly-Phe-Gly-Asp)-OH]	−0.08	-0.19	essentially nil	
c(γ-Abu-Tyr-Gly-Phe-Gly-Asp)-OH ([GABA]YGFGD-OH; lactam (positions not given here); also: cyclic, closure site not given here)	0.13	0.07	essentially nil	
cyclo(GG[dF]G[dY])	1.03	1.16	preserved or slightly improved its in vitro activity	
cyclo([dY]G[dF]GG)	0.69	0.84	retained a considerable level of proliferative activity	OGP-like proliferative activity (in words) ([4]; listed as c[D-Tyr-Gly-D-Phe-Gly-Gly]): considerable level of proliferative activity
desamino[Tyr^10]OGP(10-13)—NH(CH2)2OMe ([Desaminotyrosyl]GFG-NHCH2CH2OMe; SMILES COCCNC(=O)CNC(=O)[C@H](Cc1ccccc1)NC(=O)CNC(=O)CCc1ccc(O)cc1)	0.03	0.06	essentially nil	
desamino[Tyr^10]OGP(10-14)—NHMe ([Desaminotyrosyl]GFGG-NHMe; SMILES CNC(=O)CNC(=O)CNC(=O)[C@H](Cc1ccccc1)NC(=O)CNC(=O)CCc1ccc(O)cc1)	0.18	0.16		
desamino[Tyr^10]OGP(10-14)—OMe ([Desaminotyrosyl]GFGG-OMe; SMILES COC(=O)CNC(=O)CNC(=O)[C@H](Cc1ccccc1)NC(=O)CNC(=O)CCc1ccc(O)cc1)	0.51	0.36		activity compared to OGP(1-14) ([1]; MC3T3 E1 cells): higher than 50%; activity compared to OGP(1-14) ([2]; NIH3T3 cells): less than 50%
desamino[Tyr^10]OGP(10-14)—ol ([Desaminotyrosyl]GFGG-ol)	0.24	0.28		

From patent publication US6479460B1, “Synthetic peptides and pseudopeptides having osteogenic activity and pharmaceutical compositions containing the same” (Yissum Research Development Company of the Hebrew …, priority 1996, dated 2002)
